Assay results as given in patent US6800649B1, “Method for inhibiting c-jun expression using JAK-3 inhibitors” (Parker Hughes Institute, priority 1998, dated 2004).

Columns and labels:
[1] = system: c-jun expression in DT-40 chicken lymphoma B-cells; experiment: Radiation-induced c-jun mRNA expression by Northern blot; format: cell-based; set-up: unit of the concentration uncertain; conditions: DT-40 cells
Description: FIGS. 1A and 1B. Radiation-induced c-jun activation in wild-type DT-40 lymphoma B-cells. [A]. Dose reponse for induction of c-jun mRNA. DT-40 chicken cells were irradiated at the indicated doses (0, 10, 15, 20 Gy). Total RNA was extracted after a 2 hours or 4 hours post-irradiation time period. RNA ([…]) was loaded on a Northern gel and transferred by capillary blotting to a nylon membrane. The Northern blot was hybridized with a ^32P labeled chicken c-jun probe (top panel) or a chicken GAPDH probe (bottom panel). […] Effect of the PTK inhibitor genistein on induction of c-jun mRNA. Cells were treated with […] of genistein for 24 hours at 37° C. prior to exposure to 20 Gy ionizing radiation. c-jun expression levels were determined as in [A].
FIG. 5. Effects of a JAK-3 inhibitor on c-jun induction in irradiated DT-40 cells. Cells were treated with the quinazoline derivative 4(3′-Bromo-4′-hydroxyl-phenyl)-amino-6,7-dimethoxyquinazoline ([…]) for 24 hours at 37° C. prior to exposure to 20 Gy ionizing radiation. c-jun expression levels were determined as outlined in FIGS. 1-3. […]
A 506 basepair (bp) c-jun probe was obtained by polymerase chain reaction (PCR) amplification of chicken genomic DNA. Primer sequences were determined based upon the sequence of chicken c-jun (GenBank accession code CHKJUN). […]

JAK-3 = molecular target: T1, JAK-3 (Homo sapiens, UniProt P52333); experiment: Immune complex hot kinase assay of JAK-3 immunoprecipitated from baculovirus-infected Sf21 cells; format: biochemical; conditions: 10 μg/ml, 1 hour exposure of immune complexes before kinase assay
T1 construct: made in house; host or cells: Sf21 insect cells (baculovirus)
T1 sequence (P52333 1-1124): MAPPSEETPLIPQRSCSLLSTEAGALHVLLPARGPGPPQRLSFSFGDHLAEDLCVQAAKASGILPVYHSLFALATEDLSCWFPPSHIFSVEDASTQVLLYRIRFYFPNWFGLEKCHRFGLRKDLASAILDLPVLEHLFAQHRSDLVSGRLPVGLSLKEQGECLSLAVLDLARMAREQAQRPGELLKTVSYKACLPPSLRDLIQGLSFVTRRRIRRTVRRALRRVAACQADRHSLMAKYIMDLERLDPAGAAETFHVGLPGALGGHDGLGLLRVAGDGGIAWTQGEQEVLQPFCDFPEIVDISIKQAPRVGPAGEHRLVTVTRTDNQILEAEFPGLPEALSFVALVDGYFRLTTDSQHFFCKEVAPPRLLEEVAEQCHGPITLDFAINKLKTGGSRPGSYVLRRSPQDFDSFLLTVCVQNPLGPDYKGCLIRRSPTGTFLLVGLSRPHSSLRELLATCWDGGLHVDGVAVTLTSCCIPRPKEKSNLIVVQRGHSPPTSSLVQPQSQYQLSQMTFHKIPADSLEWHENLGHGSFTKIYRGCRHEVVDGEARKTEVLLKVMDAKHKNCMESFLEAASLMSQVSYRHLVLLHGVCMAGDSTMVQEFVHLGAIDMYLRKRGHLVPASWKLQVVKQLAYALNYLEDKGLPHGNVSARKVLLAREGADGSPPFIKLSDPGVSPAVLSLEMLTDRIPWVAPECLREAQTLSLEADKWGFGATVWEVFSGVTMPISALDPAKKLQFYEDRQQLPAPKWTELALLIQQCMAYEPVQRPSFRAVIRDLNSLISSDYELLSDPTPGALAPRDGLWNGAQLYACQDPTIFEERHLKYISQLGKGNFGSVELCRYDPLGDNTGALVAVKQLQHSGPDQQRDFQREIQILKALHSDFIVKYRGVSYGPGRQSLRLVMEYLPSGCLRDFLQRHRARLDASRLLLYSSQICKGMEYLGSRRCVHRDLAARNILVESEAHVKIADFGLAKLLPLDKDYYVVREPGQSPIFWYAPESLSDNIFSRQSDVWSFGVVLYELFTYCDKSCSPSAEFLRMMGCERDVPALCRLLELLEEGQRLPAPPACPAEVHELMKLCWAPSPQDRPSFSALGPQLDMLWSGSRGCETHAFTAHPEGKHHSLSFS
Description: (§1) FIGS. 4B1-B4. JAK-3 Inhibitors. [A]. Structures of JAK-3 inhibitors. [B] Specificity of JAK-3 inhibitors. Sf21 cells infected with baculovirus expression vectors for JAK-1 JAK-2 or JAK-3 were subjected to immunoprecipitation with anti-JAK antibodies. JAK-1 (shown in B.1), JAK-2 (shown in B.2) and JAK-3 (shown in B.3 and B.4 which illustrate results from 2 independent experiments) immune complexes were treated with 1% DMSO (vehicle control=CON), Compound 1, or Compound 2 for 1 hour prior to hot kinase assays, as described (20,22). […] EMSAs of […]-IL-2Rβ cells. Compound 1(100 (g/ml) and Compound 2 (100 (g/ml) inhibited IL-2 triggered JAK-3-dependent STAT activation but not IL-3-triggered JAK-1/JAK-2-dependent STAT activation in 32Dc11-IL-2Rβ cells.
(§2) After establishing that LYN, BTK, and SYK kinases are not required for radiation-induced c-jun activation, we set out to determine if c-jun activation is functionally linked to the JAK-STAT pathway. To this end, we examined the effects of a JAK-3 inhibitory novel quinazoline derivative on c-jun expression levels in irradiated DT-40 cells. To identify a potent JAK-3 specific inhibitor, the effects of two novel quinazoline derivatives on the enzymatic activity of JAK-1, JAK-2, and JAK-3 were examined using Sf21 cells that were infected with baculovirus expression vectors for these kinases, using standard methods (FIG. 4). […]

JAK-2 = molecular target: T2, JAK-2 (Homo sapiens, UniProt O60674); experiment: Immune complex hot kinase assay of JAK-2 immunoprecipitated from baculovirus-infected Sf21 cells; format: biochemical; conditions: even at 75 μg/ml, 1 hour exposure of immune complexes before kinase assay
T2 construct: made in house; host or cells: Sf21 insect cells (baculovirus)
T2 sequence (O60674 whole entry, species assumed): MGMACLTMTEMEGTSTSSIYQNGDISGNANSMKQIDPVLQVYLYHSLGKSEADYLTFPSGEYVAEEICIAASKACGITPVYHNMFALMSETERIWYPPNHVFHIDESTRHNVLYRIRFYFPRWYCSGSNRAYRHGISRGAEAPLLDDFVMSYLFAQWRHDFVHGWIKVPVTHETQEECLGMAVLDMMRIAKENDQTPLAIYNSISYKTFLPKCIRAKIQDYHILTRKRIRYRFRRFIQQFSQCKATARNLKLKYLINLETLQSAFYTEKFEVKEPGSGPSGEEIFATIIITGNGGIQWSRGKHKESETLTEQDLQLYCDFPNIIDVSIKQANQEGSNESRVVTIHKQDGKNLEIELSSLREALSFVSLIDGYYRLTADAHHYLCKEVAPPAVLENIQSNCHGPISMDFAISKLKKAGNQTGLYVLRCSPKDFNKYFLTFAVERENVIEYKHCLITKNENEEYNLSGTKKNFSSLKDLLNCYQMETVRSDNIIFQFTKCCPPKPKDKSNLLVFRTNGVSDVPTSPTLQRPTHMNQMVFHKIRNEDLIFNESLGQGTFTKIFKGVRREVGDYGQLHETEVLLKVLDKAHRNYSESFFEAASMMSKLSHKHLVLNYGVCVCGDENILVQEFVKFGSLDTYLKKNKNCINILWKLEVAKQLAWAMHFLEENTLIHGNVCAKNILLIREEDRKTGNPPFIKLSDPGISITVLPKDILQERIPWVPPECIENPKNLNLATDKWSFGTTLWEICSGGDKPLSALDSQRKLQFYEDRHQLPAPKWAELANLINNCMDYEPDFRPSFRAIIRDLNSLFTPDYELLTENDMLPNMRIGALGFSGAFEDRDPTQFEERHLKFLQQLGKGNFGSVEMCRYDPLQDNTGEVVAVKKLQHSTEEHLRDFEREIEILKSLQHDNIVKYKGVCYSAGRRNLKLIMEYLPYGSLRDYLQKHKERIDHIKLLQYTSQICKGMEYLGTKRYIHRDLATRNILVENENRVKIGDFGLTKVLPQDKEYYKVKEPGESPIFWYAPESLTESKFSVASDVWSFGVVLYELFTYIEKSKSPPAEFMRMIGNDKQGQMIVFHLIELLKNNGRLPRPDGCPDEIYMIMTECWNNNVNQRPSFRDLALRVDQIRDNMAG
Description: as §1, §2

[2] = system: IL-2 triggered JAK-3-dependent STAT activation; experiment: EMSA of IL-2 triggered STAT activation in 32Dc11-IL-2Rβ cells; format: cell-based; conditions: 100 (g/ml, EMSA (FIG. 4C legend))
Description: as §1
Electrophoretic Mobility Shift Assays (EMSAs) were performed to examine the effects of both compounds on cytokine-induced STAT activation. Specifically, 32Dc11/IL2Rβ cells (gift from James Ihle, St. Jude Children's Research Hospital) were exposed at 8×10^6/ml in RPMI supplemented with FBS to the JAK-3 inhibitors at a final concentration of 10 μg/ml in 1% DMSO) for 1 hour and subsequently stimulated with IL2 or IL3 as indicated. […]

JAK-1 = molecular target: T3, JAK-1 (Homo sapiens, UniProt P23458); experiment: Immune complex hot kinase assay of JAK-1 immunoprecipitated from baculovirus-infected Sf21 cells; format: biochemical; conditions: even at 75 μg/ml, 1 hour exposure of immune complexes before kinase assay
T3 construct: made in house; host or cells: Sf21 insect cells (baculovirus)
T3 sequence (P23458 whole entry, species assumed): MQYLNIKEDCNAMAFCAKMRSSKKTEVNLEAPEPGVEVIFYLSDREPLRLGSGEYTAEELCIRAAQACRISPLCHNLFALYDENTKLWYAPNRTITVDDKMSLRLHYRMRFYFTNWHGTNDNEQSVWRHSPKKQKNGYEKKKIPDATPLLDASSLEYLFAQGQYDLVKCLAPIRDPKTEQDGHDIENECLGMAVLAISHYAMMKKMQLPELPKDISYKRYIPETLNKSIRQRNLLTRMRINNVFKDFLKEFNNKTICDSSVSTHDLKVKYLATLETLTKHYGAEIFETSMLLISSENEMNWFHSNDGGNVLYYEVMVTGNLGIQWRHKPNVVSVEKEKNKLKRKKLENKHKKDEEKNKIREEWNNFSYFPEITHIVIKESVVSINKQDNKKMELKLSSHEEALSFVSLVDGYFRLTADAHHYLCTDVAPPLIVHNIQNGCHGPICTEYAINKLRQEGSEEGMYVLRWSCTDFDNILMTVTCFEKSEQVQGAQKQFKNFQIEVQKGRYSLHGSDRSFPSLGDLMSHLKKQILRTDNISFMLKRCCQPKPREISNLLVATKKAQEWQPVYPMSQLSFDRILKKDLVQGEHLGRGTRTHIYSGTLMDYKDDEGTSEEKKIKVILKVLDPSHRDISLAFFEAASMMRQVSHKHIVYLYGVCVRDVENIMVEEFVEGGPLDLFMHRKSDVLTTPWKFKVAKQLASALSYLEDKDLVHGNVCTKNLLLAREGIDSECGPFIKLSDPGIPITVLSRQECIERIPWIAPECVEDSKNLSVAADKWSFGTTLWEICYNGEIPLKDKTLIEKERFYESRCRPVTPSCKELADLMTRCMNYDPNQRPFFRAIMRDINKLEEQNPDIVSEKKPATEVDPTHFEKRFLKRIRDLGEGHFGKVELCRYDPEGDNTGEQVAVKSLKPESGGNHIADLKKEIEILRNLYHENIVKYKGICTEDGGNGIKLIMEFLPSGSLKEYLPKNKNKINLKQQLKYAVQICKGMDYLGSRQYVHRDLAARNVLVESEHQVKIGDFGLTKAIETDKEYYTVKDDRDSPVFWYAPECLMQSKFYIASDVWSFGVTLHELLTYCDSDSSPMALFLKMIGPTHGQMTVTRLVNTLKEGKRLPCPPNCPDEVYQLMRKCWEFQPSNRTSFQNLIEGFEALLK
Description: as §1, §2

SMILES | stimulation index (c-jun/GAPDH ratio, irradiated versus non-irradiated cells) ([1]; 30 (unit uncertain) for 24 hours at 37° C. before 20 Gy ionizing radiation) | inhibition of JAK-3 enzymatic activity (JAK-3) | inhibition of JAK-2 enzymatic activity (JAK-2) | inhibition of IL-2 triggered JAK-3-dependent STAT activation [2] | induction of c-jun expression by ionizing radiation in treated cells ([1]; 100 (unit uncertain) for 24 hours at 37° C. before 20 Gy ionizing radiation) | inhibition of JAK-1 enzymatic activity (JAK-1)
O=c1c(-c2ccc(O)cc2)coc2cc(O)cc(O)c12 [genistein, reference compound] | 1.1 |  |  |  |  | 
COc1cc2ncnc(Nc3ccc(O)c(Br)c3)c2cc1OC [Compound 2, 4-(3′-Bromo-4′-hydroxylphenyl)-amino-6,7-dimethoxy-quinazoline] |  | inhibited | did not inhibit | inhibited | failed to induce c-jun expression | did not inhibit
COc1cc2ncnc(Nc3ccc(O)cc3)c2cc1OC [Compound 1, 4-(4′-Hydroxylphenyl)-amino-6,7-dimethoxy-quinazoline] |  | inhibited | did not inhibit | inhibited |  | did not inhibit
